In ChEMBL document CHEMBL1134053, “Structure-activity studies of 5-substituted pyridopyrimidines as adenosine kinase inhibitors” (Bioorg Med Chem Lett, 2001):

Experiments:
Adenosine kinase [1] = molecular target: T1, Adenosine kinase (Rattus norvegicus, UniProt Q64640); test: Inhibitory activity against intact cell adenosine kinase by ADO phosphorylation assay
Adenosine kinase [2] = molecular target: T1, Adenosine kinase; test: Inhibitory activity against cytosolic adenosine kinase by ADO phosphorylation assay
Rattus norvegicus [3] = test: Tested for analgesic activity in vivo rat formalin nociception assay, administered by intraperitoneal injection to six animals at each dose. p<0.05; format: functional; details: ip
Rattus norvegicus [4] = test: Tested for analgesic activity in vivo rat carrageenan hyperalgesia assay, administered by intraperitoneal injection to six animals at each dose. p<0.05; format: functional; details: ip

T1 sequence (Q64640 whole entry): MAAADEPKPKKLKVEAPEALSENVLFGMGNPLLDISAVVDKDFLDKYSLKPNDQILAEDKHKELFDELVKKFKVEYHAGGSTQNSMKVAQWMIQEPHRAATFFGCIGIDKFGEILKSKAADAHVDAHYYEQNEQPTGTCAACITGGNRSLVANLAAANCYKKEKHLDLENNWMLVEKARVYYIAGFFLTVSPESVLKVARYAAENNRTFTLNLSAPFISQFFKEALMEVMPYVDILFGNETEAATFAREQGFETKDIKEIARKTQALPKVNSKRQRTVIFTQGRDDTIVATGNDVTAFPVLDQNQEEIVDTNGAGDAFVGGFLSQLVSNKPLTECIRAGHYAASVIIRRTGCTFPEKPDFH

Structure (SMILES)	IC50 (Adenosine kinase [1])	IC50 (Adenosine kinase [2])	ED50 (Rattus norvegicus [3])	ED50 (Rattus norvegicus [4])
CN(C)c1ccc(-c2cc(-c3cccc(C(F)(F)F)c3)c3c(N)ncnc3n2)cc1	0.225 µM	0.036 µM		
CC(c1ccccc1Br)c1cc(-c2ccc(N3CCOCC3)nc2)nc2ncnc(N)c12 (stereo not drawn)	0.03 µM	0.00025 µM	10 µmol/kg	10 µmol/kg
CCC(CC)c1cc(-c2ccc(N3CCOCC3)nc2)nc2ncnc(N)c12	0.115 µM	0.009 µM		30 µmol/kg
Nc1ncnc2nc(-c3ccc(N4CCOCC4)nc3)cc(C3CCOCC3)c12	0.8 µM	0.017 µM	30 µmol/kg	> 2 µmol/kg
Cc1cc(-c2ccc(N(C)C)cc2)nc2ncnc(N)c12	> 1 µM	0.047 µM		
C=CC(C)(C)c1cc(-c2ccc(N3CCOCC3)nc2)nc2ncnc(N)c12	0.304 µM	0.021 µM		
CC1CC(C)CC(c2cc(-c3ccc(N4CCOCC4)nc3)nc3ncnc(N)c23)C1 (stereo not drawn)	0.102 µM	0.00023 µM	> 30 µmol/kg	30 µmol/kg
Nc1ncnc2nc(-c3ccc(N4CCOCC4)nc3)cc(Cc3ccccc3Br)c12	0.033 µM	0.00017 µM	30 µmol/kg	3 µmol/kg
COc1cccc(-c2cc(-c3ccc(N(C)C)cc3)nc3ncnc(N)c23)c1	0.4 µM	0.085 µM		
Nc1ncnc2nc(-c3ccc(N4CCOCC4)nc3)cc(-c3ccc(Br)cc3)c12	0.43 µM	0.03 µM	30 µmol/kg	
CCCCc1cc(-c2ccc(N(C)C)cc2)nc2ncnc(N)c12	0.55 µM	0.011 µM		
CN(C)c1ccc(-c2cc(C3CC3)c3c(N)ncnc3n2)cc1	0.825 µM	0.055 µM		
Nc1ncnc2nc(-c3ccc(N4CCOCC4)nc3)cc(-c3cccnc3)c12	0.315 µM	0.062 µM		> 30 µmol/kg
CN(C)c1ccc(-c2cc(-c3cccc(Cl)c3)c3c(N)ncnc3n2)cc1	0.078 µM	0.015 µM		
CN(C)c1ccc(-c2cc(-c3cccc(C(N)=O)c3)c3c(N)ncnc3n2)cc1	0.85 µM	0.077 µM		
Nc1ncnc2nc(-c3ccc(N4CCOCC4)nc3)ccc12	> 1 µM	0.562 µM		
CN(C)c1ccc(-c2cc(-c3cccc(C#N)c3)c3c(N)ncnc3n2)cc1	0.325 µM	0.035 µM		

Structure (SMILES)	IC50 (Adenosine kinase [1])	IC50 (Adenosine kinase [2])	ED50 (Rattus norvegicus [3])	ED50 (Rattus norvegicus [4])
CN(C)c1ccc(-c2cc(C3CCCCC3)c3c(N)ncnc3n2)cc1	0.47 µM	0.008 µM		
CN(C)c1ccc(-c2ccc3c(N)ncnc3n2)cc1	> 10 µM	0.733 µM		
Nc1ncnc2nc(-c3ccc(N4CCOCC4)nc3)cc(-c3cc(Cl)ccc3Cl)c12	0.378 µM	0.038 µM		
CN(C)c1ccc(-c2cc(-c3cccc(I)c3)c3c(N)ncnc3n2)cc1	0.12 µM	0.017 µM		
Nc1ncnc2nc(-c3ccc(N4CCOCC4)nc3)cc(-c3cccc(Cl)c3Cl)c12	0.13 µM	0.005 µM		5 µmol/kg
Nc1ncnc2nc(-c3ccc(N4CCOCC4)nc3)cc(C3CCCCC3)c12	0.057 µM	0.003 µM	20 µmol/kg	10 µmol/kg
Nc1ncnc2nc(-c3ccc(N4CCOCC4)nc3)cc(-c3ccco3)c12	0.488 µM	0.01 µM		
Nc1ncnc2nc(-c3ccc(N4CCOCC4)nc3)cc(-c3ccsc3)c12	0.55 µM	0.013 µM		
Nc1ncnc2nc(-c3ccc(N4CCOCC4)nc3)cc(C3CCCC3)c12	0.08 µM	0.002 µM		10 µmol/kg
Nc1ncnc2nc(-c3ccc(N4CCOCC4)nc3)cc(-c3ccccc3Br)c12	0.675 µM	0.003 µM	10 µmol/kg	30 µmol/kg
Nc1ncnc2nc(-c3ccc(N4CCOCC4)nc3)cc(-c3cccc(Cl)c3)c12	0.096 µM	0.009 µM	10 µmol/kg	20 µmol/kg
CN(C)c1ccc(-c2cc(-c3cccc(O)c3)c3c(N)ncnc3n2)cc1	0.353 µM	0.044 µM		
Nc1ncnc2nc(-c3ccc(N4CCOCC4)nc3)cc(-c3cccc(Br)c3)c12	0.05 µM	0.002 µM	25 µmol/kg	0.6 µmol/kg
CN(C)c1ccc(-c2cnc3c(N)ncnc3n2)cc1		0.4 µM		
CN(C)c1ccc(-c2cc(-c3ccccc3)c3c(N)ncnc3n2)cc1	0.47 µM	0.007 µM		
CN(C)c1ccc(-c2cc(-c3cccc(Br)c3)c3c(N)ncnc3n2)cc1	0.17 µM	0.005 µM	0.7 µmol/kg	30 µmol/kg
